Data from patent US9271971B2, “Pyrido[3,4-B]indoles and methods of use” (Medivation Technologies, Inc., priority 2009, dated 2016).

Columns and labels:
[1] = molecular target: T1, rat adrenergic α1B receptor (Rattus norvegicus, UniProt P15823); test: Adrenergic α1B radioligand binding assay; settings: [3H]Prozosin specific binding, read-out: Percent Inhibition of ligand binding, Adrenergic (0.1 μM ligand conc.) α1B
T1 construct: rat adrenergic α1B receptor obtained from Wistar Rat liver; from tissue; host or cells: Wistar Rat liver
T1 sequence (P15823 1-515): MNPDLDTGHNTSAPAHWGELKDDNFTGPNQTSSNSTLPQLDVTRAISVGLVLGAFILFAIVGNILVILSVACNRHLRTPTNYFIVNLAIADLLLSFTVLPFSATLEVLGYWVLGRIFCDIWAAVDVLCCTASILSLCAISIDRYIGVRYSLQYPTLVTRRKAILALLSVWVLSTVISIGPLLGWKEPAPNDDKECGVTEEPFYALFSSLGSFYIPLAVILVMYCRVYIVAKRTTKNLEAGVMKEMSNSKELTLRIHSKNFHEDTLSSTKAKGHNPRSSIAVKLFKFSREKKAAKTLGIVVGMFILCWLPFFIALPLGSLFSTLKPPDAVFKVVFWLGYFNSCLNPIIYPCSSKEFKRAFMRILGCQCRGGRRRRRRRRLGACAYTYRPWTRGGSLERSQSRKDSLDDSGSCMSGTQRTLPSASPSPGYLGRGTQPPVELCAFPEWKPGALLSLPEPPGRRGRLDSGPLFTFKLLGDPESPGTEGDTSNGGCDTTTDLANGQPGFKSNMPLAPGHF
Protocol: To evaluate in radioligand binding assays the activity of compounds of the invention, rat adrenergic α1B receptor obtained from Wistar Rat liver [Garcia-S′ainz, J. A. et al., Biochem. Biophys. Res. Commun. (1992), 186:760; Michel, A. D. et al., Br. J. Pharmacol. (1989), 98:883] in a modified Tris-HCl buffer (50 mM Tris-HCl buffer, pH 7.4, 0.5 mM EDTA) was used. Compounds of the invention were incubated with 0.25 nM [^3H]Prozosin for 60 min. at 25° C. Non-specific binding was estimated in the presence of 10 μM phentolamine. Receptor proteins were filtered and washed, the filters were then counted to determine [^3H]Prozosin specifically bound. Compounds were screened at 1 μM or lower, using 1% DMSO as vehicle. Compounds of the invention were tested in this biochemical assay. Biochemical assay results for representative compounds were presented as the percent inhibition of specific binding in Table 3.

[2] = molecular target: human recombinant serotonin (5-Hydroxytryptamine) 5-HT7 receptor (Homo sapiens, UniProt P34969); test: Serotonin 5-HT7 radioligand binding assay; settings: [3H]LSD specific binding, read-out: Percent Inhibition of ligand binding, Serotonin (1 μM ligand concentration) 5-HT7
Chain of human recombinant serotonin (5-Hydroxytryptamine) 5-HT7 receptor (P34969 whole entry): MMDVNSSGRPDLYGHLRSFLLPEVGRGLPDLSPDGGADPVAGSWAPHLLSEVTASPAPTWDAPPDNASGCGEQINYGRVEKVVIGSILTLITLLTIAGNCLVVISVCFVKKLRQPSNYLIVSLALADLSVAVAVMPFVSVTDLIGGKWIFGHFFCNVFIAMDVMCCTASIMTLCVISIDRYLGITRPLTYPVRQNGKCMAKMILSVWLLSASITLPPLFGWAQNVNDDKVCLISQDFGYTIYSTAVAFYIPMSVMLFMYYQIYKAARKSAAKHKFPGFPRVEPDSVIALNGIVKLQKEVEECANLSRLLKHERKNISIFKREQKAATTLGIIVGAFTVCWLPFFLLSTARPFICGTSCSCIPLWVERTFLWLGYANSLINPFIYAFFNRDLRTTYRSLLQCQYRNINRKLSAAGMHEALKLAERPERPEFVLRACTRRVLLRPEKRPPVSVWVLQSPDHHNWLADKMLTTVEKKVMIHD
Protocol: To evaluate in radioligand binding assays the activity of compounds of the invention, human recombinant serotonin (5-Hydroxytryptamine) 5-HT7 receptor expressed in Chinese hamster ovary (CHO) cells [Roth, B. L. et al., J. Pharmacol. Exp. Ther. (1994), 268:1403; Shen, Y. et al., J. Biol. Chem. (1993), 268:18200] in a modified Tris-HCl buffer (50 mM Tris-HCl, pH 7.4, 10 mM MgCl2, 0.5 mM EDTA) was used. Compounds of invention were incubated with 5.5 nM [^3H] Lysergic acid diethylamide (LSD) for 2 h at 25° C. Non-specific binding was estimated in the presence of 10 μM Serotonin (5-HT). Receptor proteins were filtered and washed, the filters were then counted to determine [^3H]LSD specifically bound. Compounds were screened at 1 μM or lower, using 1% DMSO as vehicle. Biochemical assay results are presented as the percent inhibition of specific binding in Table 4.

[3] = molecular target: T2, human recombinant histamine H2 receptor (Homo sapiens, UniProt P25021); test: Histamine H2 radioligand binding assay; settings: [125I]Aminopotentidine specific binding, read-out: Percentage Inhibition, Histamine Binding (1 μM) H2
T2 construct: expressed in transfected cells; host or cells: Chinese hamster ovary (CHO) K1 cells
T2 sequence (P25021 whole entry): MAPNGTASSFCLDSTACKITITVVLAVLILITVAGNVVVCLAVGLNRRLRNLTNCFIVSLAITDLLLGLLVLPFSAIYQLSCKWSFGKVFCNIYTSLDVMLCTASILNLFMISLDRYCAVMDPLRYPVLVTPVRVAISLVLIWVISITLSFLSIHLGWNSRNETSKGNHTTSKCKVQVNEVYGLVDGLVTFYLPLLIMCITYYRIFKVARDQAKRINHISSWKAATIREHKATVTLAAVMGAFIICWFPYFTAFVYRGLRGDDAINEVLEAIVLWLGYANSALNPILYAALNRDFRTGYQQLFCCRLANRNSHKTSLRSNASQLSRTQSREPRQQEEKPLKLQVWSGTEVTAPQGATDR
Protocol: To evaluate in radioligand binding assays the activity of compounds of the invention, human recombinant histamine H2 receptor expressed in Chinese hamster ovary (CHO) K1 cells [Ruat, M., Proc. Natl. Acad. Sci. USA. (1990), 87(5):1658] in a 50 mM Phosphate buffer, pH 7.4 was used. Compounds of the invention were incubated with 0.1 nM [^125I]Aminopotentidine for 120 min. at 25° C. Non-specific binding was estimated in the presence of 3 μM Tiotidine. Receptor proteins were filtered and washed, the filters were then counted to determine [^125I]Aminopotentidine specifically bound. Compounds were screened at 1 μM or lower, using 1% DMSO as vehicle. Biochemical assay results are presented as the percent inhibition of specific binding in Table 2.

[4] = molecular target: T3, human recombinant serotonin (5-Hydroxytryptamine) 5-HT2A receptor (Homo sapiens, UniProt P28223); test: Serotonin 5-HT2A radioligand binding assay; settings: [3H]Ketanserin specific binding, read-out: Percent Inhibition of ligand binding, Serotonin (1 μM ligand concentration) 5-HT2A
T3 construct: expressed in transfected cells; host or cells: Chinese hamster ovary (CHO-K1) cells
T3 sequence (P28223 whole entry): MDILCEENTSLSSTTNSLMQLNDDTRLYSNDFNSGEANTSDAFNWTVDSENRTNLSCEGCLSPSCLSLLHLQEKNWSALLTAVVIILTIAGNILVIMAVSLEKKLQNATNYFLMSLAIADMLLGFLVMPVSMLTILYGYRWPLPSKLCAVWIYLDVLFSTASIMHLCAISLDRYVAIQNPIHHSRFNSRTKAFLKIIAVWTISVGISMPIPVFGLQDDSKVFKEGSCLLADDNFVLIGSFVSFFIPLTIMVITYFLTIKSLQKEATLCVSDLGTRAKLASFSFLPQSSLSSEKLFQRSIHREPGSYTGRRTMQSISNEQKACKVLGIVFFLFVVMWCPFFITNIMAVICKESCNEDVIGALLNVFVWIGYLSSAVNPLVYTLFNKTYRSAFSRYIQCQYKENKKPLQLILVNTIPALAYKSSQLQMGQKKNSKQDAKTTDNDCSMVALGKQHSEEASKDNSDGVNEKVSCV
Protocol: To evaluate in radioligand binding assays the activity of compounds of the invention, human recombinant serotonin (5-Hydroxytryptamine) 5-HT2A receptor expressed in Chinese hamster ovary (CHO-K1) cells [Bonhaus, D. W. et al., Br. J. Pharmacol. (1995), 115:622; Saucier, C. et al., J. Neurochem. (1997), 68:1998] in a 50 mM Tris-HCl buffer, pH 7.4, was used. Compounds of the invention were incubated with 0.5 nM [^3H]Ketanserin for 60 min. at 25° C. Non-specific binding was estimated in the presence of 1 μM Mianserin. Receptor proteins were filtered and washed, the filters were then counted to determine [^3H]Ketanserin specifically bound. Compounds were screened at 1 μM or lower, using 1% DMSO as vehicle. Biochemical assay results are presented as the percent inhibition of specific binding in Table 4.

| SMILES | inhibition at 0.1 µM [1] | inhibition at 1 µM [2] | inhibition at 1 µM [3] | inhibition at 1 µM [4] |
| --- | --- | --- | --- | --- |
| C/C(=C\n1c2c(c3cc(C)ccc31)C1CCN(C2)C1)c1ccc(Cl)cc1Cl (stereo not drawn) [Compound 33] | 28% | 96% | 35% | 78% |
| C/C(=C\n1c2c(c3cc(C)ccc31)C1CCN(C2)C1)c1ccncc1 (stereo not drawn) [Compound 44] | 4% | 80% | -3% | 67% |
| C/C(=C\n1c2c(c3cc(C)ccc31)C1CCN(C2)C1)c1ccccc1F (stereo not drawn) [Compound 38] | 29% | 95% | 7% | 90% |
| Cc1ccc2c(c1)c1c(n2C(=O)Cc2ccc(Cl)cc2)CN2CCC1C2 (stereo not drawn) [Compound 36] | 4% | 75% | 20% | 89% |
| C/C(=C\n1c2c(c3cc(C)ccc31)C1CCN(C2)C1)c1ccc(Cl)cc1 (stereo not drawn) [Compound 32] | 67% | 96% | 82% | 86% |
| COc1ccc(/C(C)=C/n2c3c(c4cc(C)ccc42)C2CCN(C3)C2)cc1 (stereo not drawn) [Compound 45] | 20% | 93% | 21% | 98% |
